{"source": "paper PMC11456916", "about": "“A screen for cell envelope stress uncovers an inhibitor of prolipoprotein diacylglyceryl transferase, Lgt, in Escherichiacoli” (iScience, 2024)", "system": "356 CRISPRi constructs in E. coli ΔtolC-pore", "assay": "CRISPRi collection fitness screen with sub-inhibitory compound", "assay_type": "cell-based", "conditions": "sub-inhibitory (¼ MIC) concentration, LB agar, basal knockdown", "description": "To that end, we screened the E. coli CRISPRi collection in the ΔtolC-pore genetic background with a sub-inhibitory concentration of MAC-0452936 and measured the fitness of all 356 CRISPRi mutants (Figure 4C and Data S4). […] To that end, we introduced either an arabinose inducible copy of lgt supplied on the pCHAP9231 plasmid[48] or the pBAD19s plasmid as a control into E. coli ΔtolC-pore and tested the potency of MAC-0452936 (Figure 4E). […] To test this hypothesis, we constructed E. coli ΔlgtΔtolC-pore with pCHAP9231[48] so that lgt expression was driven solely by arabinose from the plasmid.\nFor screens of the CRISPRi collection with MAC-0452936, the mobile CRISPRi collection was first conjugated into E. coli ΔtolC-pore as previously described.[30] The CRISPRi collection was then arrayed on solid agar at 1536 density using the Singer-ROTOR, such that each CRISPRi strain is arrayed in technical quadruplicate. […] The screens were conducted without CRISPRi induction, using just the 5–10% basal knockdown from the pFD152 CRISPRi plasmid. Following overnight growth, plates were imaged using high-resolution scanners (Epson Perfection v750), and colony biomass for each mutant was determined."}
{"smiles": "COc1ccc(C(=O)O/N=C(\\c2cccs2)C(C)(C)C)cc1", "note": "[MAC-0452936, (Z)-2-Pivaloylthiophene O-(4-methoxybenzoyl) oxime]", "values": [{"measurement": "growth defect of the lgt CRISPRi mutant in the presence of compound", "result": "considerable growth defect"}]}
